The values below are quoted from earlier work in patent US20030096334A1, “Use of injectable dyes for staining an anterior lens capsule and vitreo-retinal interface” (priority 2001, published 2003).

The conditions of this series: descriptive term only.

On to `Cc1cc(-c2ccc(/N=N/c3ccc4c(S(=O)(=O)O)cc(S(=O)(=O)O)c(N)c4c3O)c(C)c2)ccc1/N=N/c1ccc2c(S(=O)(=O)O)cc(S(=O)(=O)O)c(N)c2c1O` [Evans Blue, Tetrasodium 6.6′-[3,3′-dimethylbiphenyl-4,4′-diylbis(azo)]bis[4-amino-t-hydroxynaphthalene-1,3-disulphonate]], for which the solubility in water result is “very soluble”.
